One assay concerns the target full-length PDK1 (Homo sapiens (Human), UniProt O15530). As to the kind of experiment: PDK phosphorylation of AKT and PKC-PIFtide in presence of PIP3 vesicles. The format is biochemical. To be noted: substrates PKC-PIFtide vs AKT2. The procedure: PDK phosphorylation of two different substrates, AKT and PKC-PIFtide, was measured in presence of pre-formed phophoinositol lipid PIP3 vesicles. 5 nM full-length PDK1 and was incubated with 100 nM substrate (unphosphorylated, full-length AKT2 or PKC-PIFtide, Invitrogen cat#P2925) in presence of test compound or DMSO at room temperature for 3 hours. Final buffer conditions were 10 mM Tris pH 7.5 buffer containing 10 mM MgCl2, 0.002% Triton X-100, 1 mM DTT, 0.2 mg/ml BSA, 10 uM PtdIns(3,4,5)P3 (Matreya, Inc), 100 uM DOPC:DOPS (Avanti Polar Lipids), and 0.5 uCi γ^33P-ATP (3000 Ci/mmol, Perkin-Elmer.)
Kinase reactions were stopped with addition of 50 uM non-labelled ATP and 5 mM EDTA, then acidified with 0.5% final concentration phosphoric acid. Labeled proteins were collected in Whatman P81 filter plates and washed with three 150 ul volumes of 0.5% phosphoric acid.
Lipid vesicles were pre-formed as follows. 15 mg (3 ampules) DOPC:DOPS was resuspended in 898 ul 10 mM HEPES pH 7.4. 1 mg PIP3 was resuspended in 1000 ul 10 mM HEPES pH 7.4. 964 ul of PIP3 was mixed with 800 ul DOPC:DOPS and diluted with 18.2 ml 10 mM HEPES pH 7.4 and mixed by vortexing. The lipid mixture was subjected to 5 cycles of freeze/thaw using liquid nitrogen and a 50° C. water bath. Aliquot of lipids were flash frozen and stored at −20° C.

In the next assay the test system is phospho-akt (Thr308). As to the kind of experiment: phospho-akt (Thr308) MSD ELISA in PC-3 cells. The format is cell-based. To be noted: Homo sapiens, PC-3, 2 h, PC-3 cells, 2 hours, no serum. In a few lines: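 PC-3 cells plated overnight in 10% FBS medium, then treated with three-fold serial compound dilutions in serum-free medium; DMSO-only wells as high control. Lysates captured on BSA-blocked MSD plates overnight at 4 degrees, detection antibody 1 hr RT, electrochemiluminescence read on MSD reader.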

A further assay has as its target dephosphorylated PDK1 (Homo sapiens (Human), UniProt O15530). As to the kind of experiment: PDK1 kinase assay (coupled PDK1/AKT/FAM-crosstide, IMAP). The format is biochemical. To be noted: 25 nM un-phosphorylated PDK1, 24 μM ATP; read-out: Inhibition of dephospo-PDK1 in vitro IC50. In a few lines:
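Coupled cascade using 25 nM dephosphorylated PDK1 (aa 51–360, lambda-phosphatase treated, MS-verified), 30 nM unphosphorylated GST-AKT2 (aa 140–467)-PIFtide and 100 nM FAM-crosstide in Tris pH 7.2, 10 mM MgCl2, 1 mM DTT. ATP was 24 μM, with 30 min at 25 °C. Product was read by IMAP fluorescence polarization, and ΔmP against concentration was fitted with a 4-parameter model.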

For the next assay, the target named is phosphorylated PDK1 (Homo sapiens (Human), UniProt O15530). Described as above. The format is biochemical. The following applies: 0.5 nM phosphorylated PDK1, 24 μM ATP; read-out: Inhibition of phospo-PDK1 in vitro IC50.
The subject of assay [1] is phospho-akt (thr308), phospho-PKC delta (thr505), phospho-PKC (thr538), phospho-PKC zeta (thr410). As to the kind of experiment: Phospho-PKC detection using immunoblot in PC-3 cells. The format is cell-based. The following applies: FIG. 2; at 2 hours and 18 hours. The procedure: The Phospho-PKC Detection was performed using immunoblot analysis as follows. The cell activity of test compounds, were assessed using immunoblot analysis for phospho-akt (thr308), phospho-PKC delta (thr505), phospho-PKC (thr538) and phospho-PKC zeta (thr410).
PC-3 prostate cells were plated in a 100 mm tissue culture dish in F12K media (Invitrogen, Carlsbad, Calif.) plus 10% FBS (Invitrogen) and placed in incubator overnight. The stocks of test compounds were a 50 mM solution in DMSO. For some test compounds a 5 mM solution was made in DMSO then directly diluted (1 μM and 5 μM final concentration) into fresh media with no serum. For other test compounds the 50 mM stock was directly diluted (10 μM and 30 μM final concentrations) into fresh media with no serum. For the control, DMSO was added to media with no serum at a final concentration of 0.1%. Cells were incubated with compound for 2 hrs or 18 hrs at 37° C. Cells were harvested and washed in PBS and subjected to centrifugation at 3,300 rpm for 5 minutes. The cell pellet was lysed in 150 μl Pierce (Rockford, Ill.) M-PER lysis buffer plus protease inhibitors and phosphatase inhibitors (Sigma, St. Louis, Mo.) for 30 minutes on ice followed by centrifugation at 13,000 rpm for 5 minutes. The protein content of the supernatant was assayed using DC Protein Assay (BioRad, Hercules, Calif.). […]

In another assay the test system is Phospho-T308 Akt. Put plainly: Phospho-T308 Akt detection using immunoblot (western blot) in PC-3 cells. The format is cell-based. In a few lines:
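PC-3 prostate cells, cultured overnight in F12K plus 10% FBS, were treated for 2 h at 37 °C in serum-free medium with compound A (1000× DMSO dilutions). Lysate protein was immunoblotted with anti-phospho-Akt Thr308. Bands were quantified by background-subtracted densitometry, giving EC50 by non-linear regression and percent decrease at 2 μM and 5 μM.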

[2] abbreviates: read-out: Inhibition of P308 Akt in cells using MSD EC50.
Setting [3] is: read-out: Reduction of Cellular Levels of Akt p308 By MSD ELISA (EC50 μM).

Each structure is given as a SMILES string. Like-named read-outs stand apart in the source and are kept apart here.

dephosphorylated PDK1, sequence (O15530 51-360): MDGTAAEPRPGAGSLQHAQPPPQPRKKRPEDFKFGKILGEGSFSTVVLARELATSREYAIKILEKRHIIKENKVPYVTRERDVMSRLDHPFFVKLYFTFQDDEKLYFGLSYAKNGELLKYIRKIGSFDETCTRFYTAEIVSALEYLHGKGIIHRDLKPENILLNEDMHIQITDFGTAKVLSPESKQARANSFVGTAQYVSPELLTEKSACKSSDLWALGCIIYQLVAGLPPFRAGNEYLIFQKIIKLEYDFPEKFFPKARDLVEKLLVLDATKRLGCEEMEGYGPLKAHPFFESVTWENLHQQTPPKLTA
phosphorylated PDK1, sequence (O15530 51-360): as above
full-length PDK1, sequence (O15530 whole entry): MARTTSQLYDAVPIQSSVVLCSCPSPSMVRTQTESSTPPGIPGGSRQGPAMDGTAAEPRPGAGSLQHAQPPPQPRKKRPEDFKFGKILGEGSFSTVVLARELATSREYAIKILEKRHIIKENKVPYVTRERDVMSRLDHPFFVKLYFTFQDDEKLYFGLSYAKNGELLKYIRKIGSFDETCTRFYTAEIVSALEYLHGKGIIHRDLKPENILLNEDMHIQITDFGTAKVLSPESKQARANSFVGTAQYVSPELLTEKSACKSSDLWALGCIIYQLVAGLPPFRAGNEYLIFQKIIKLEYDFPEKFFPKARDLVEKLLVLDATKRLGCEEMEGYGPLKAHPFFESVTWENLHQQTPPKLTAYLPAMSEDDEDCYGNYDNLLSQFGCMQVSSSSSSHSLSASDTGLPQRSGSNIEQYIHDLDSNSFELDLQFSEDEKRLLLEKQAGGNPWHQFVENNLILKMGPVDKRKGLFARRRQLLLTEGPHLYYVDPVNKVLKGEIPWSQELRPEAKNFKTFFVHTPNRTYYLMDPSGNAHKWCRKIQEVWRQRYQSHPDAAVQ

Regarding `O=C(NCc1ccc(-c2c[nH]c3ncccc23)s1)c1cccn(Cc2ccc(F)c(F)c2)c1=O` [Cpd 2], the “Ratio of PIP3 IC50 with PKCtide to PIP3 IC50 with AKT” value (shortened to “Ratio of PIP3 IC50 with PKCtide”) at full-length PDK1 turned out to be 36.7. In addition, the half-maximal effective concentration (EC50) with phospho-akt (Thr308) (setting [2]) and with phospho-akt (Thr308) (setting [3]) was 1 to 5 µM in each case. In addition, the IC50 at dephosphorylated PDK1 and at phosphorylated PDK1 was under 500 nM each time.
For `COc1ccnc(NCCC#CCCNC(=O)c2cccn(Cc3cccc(Cl)c3)c2=O)n1` [Cpd 102], the “Ratio of PIP3 IC50 with PKCtide” value at full-length PDK1 was found to be 19.1. In addition, the IC50 on dephosphorylated PDK1 is under 500 nM; on phosphorylated PDK1 it was 500 to 10000 nM.
For the compound `COc1ccnc(NCCC#CCNC(=O)c2cccn(Cc3ccc(F)c(F)c3)c2=O)n1` [Cpd 109], the “Ratio of PIP3 IC50 with PKCtide” value on full-length PDK1 is 51.8. For the same compound, the IC50 at dephosphorylated PDK1 and on phosphorylated PDK1 was under 500 nM in each case.
As to `O=C(NCCCCc1c[nH]c2ncccc12)c1cccn(Cc2ccc(F)c(F)c2)c1=O` [Cpd 110], at full-length PDK1, the “Ratio of PIP3 IC50 with PKCtide” value was 13.5. For the same compound, the IC50 at dephosphorylated PDK1 and at phosphorylated PDK1 was under 500 nM each time.
On to `O=C(N[C@@H](COc1ccc2[nH]c(=O)[nH]c2c1)c1ccccc1)c1cccn(Cc2ccc(F)c(F)c2)c1=O` [Cpd 144], for which the “inhibition of PDK1 mediated phosphorylation of Akt relative to PKC isoforms” value in assay [1] is reported as “selective inhibition of PDK1 mediated phosphorylation of Akt relative to PDK1 mediated phosphorylation of PKC isoforms”. Further, the EC50 in the assay on phospho-akt (Thr308) (setting [2]) and in the assay on phospho-akt (Thr308) (setting [3]) was under 1 µM each time. Besides, the “Reduction of Cellular Levels of Akt p308 By Western” value in the assay with Phospho-T308 Akt (2 hour incubation, concentration not given in Table 2) is given as “bbb (inhibition of more than 75%)”. The inhibition at 2 µM in the assay on Phospho-T308 Akt (Homo sapiens, at 2 μM, read-out: Percent Inhibition of phospho-Akt (308) By Western) is over 75%.

For the origin of these results see US9873693B2 (Sunesis Pharmaceuticals, Inc., priority 2006, dated 2018).
